Reference: PubChem BioAssay (NCI)
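Assay format: 96-well plates, 48-hour exposure. TGI: concentration producing complete growth inhibition.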

Key:
Experiment in all cases: NCI-60 cell line screen, 48 h
786-0 renal = test system: 786-0 renal
A549 NSCLC = test system: A549 NSCLC
ACHN renal = test system: ACHN renal
BT-549 breast = test system: BT-549 breast
CCRF-CEM leukemia = test system: CCRF-CEM leukemia
COLO 205 colon = test system: COLO 205 colon
DU-145 prostate = test system: DU-145 prostate
HCC-2998 colon = test system: HCC-2998 colon
HCT-15 colon = test system: HCT-15 colon
HL-60(TB) leukemia = test system: HL-60(TB) leukemia
HOP-92 NSCLC = test system: HOP-92 NSCLC
HS 578T breast = test system: HS 578T breast
HT29 colon = test system: HT29 colon
IGROV1 ovarian = test system: IGROV1 ovarian
K-562 leukemia = test system: K-562 leukemia
KM12 colon = test system: KM12 colon
LOX IMVI melanoma = test system: LOX IMVI melanoma
M14 melanoma = test system: M14 melanoma
MALME-3M melanoma = test system: MALME-3M melanoma
MCF7 breast = test system: MCF7 breast
MDA-MB-231 breast = test system: MDA-MB-231 breast
MDA-MB-435 = test system: MDA-MB-435
MDA-N = test system: MDA-N
MOLT-4 leukemia = test system: MOLT-4 leukemia
NCI-H226 lung = test system: NCI-H226 lung
NCI-H23 lung = test system: NCI-H23 lung
NCI-H460 lung = test system: NCI-H460 lung
NCI-H522 lung = test system: NCI-H522 lung
OVCAR-3 ovarian = test system: OVCAR-3 ovarian
OVCAR-4 ovarian = test system: OVCAR-4 ovarian
OVCAR-5 ovarian = test system: OVCAR-5 ovarian
OVCAR-8 ovarian = test system: OVCAR-8 ovarian
RPMI-8226 leukemia = test system: RPMI-8226 leukemia
RXF 393 renal = test system: RXF 393 renal
SF-268 CNS = test system: SF-268 CNS
SF-295 CNS = test system: SF-295 CNS
SK-MEL-2 melanoma = test system: SK-MEL-2 melanoma
SK-MEL-28 melanoma = test system: SK-MEL-28 melanoma
SK-MEL-5 melanoma = test system: SK-MEL-5 melanoma
SN12C renal = test system: SN12C renal
SNB-19 CNS = test system: SNB-19 CNS
SNB-75 CNS = test system: SNB-75 CNS
SR leukemia = test system: SR leukemia
SW-620 colon = test system: SW-620 colon
T-47D breast = test system: T-47D breast
TK-10 renal = test system: TK-10 renal
U251 CNS = test system: U251 CNS
UACC-257 melanoma = test system: UACC-257 melanoma
UACC-62 melanoma = test system: UACC-62 melanoma
UO-31 renal = test system: UO-31 renal
A498 renal = test system: A498 renal
CAKI-1 renal = test system: CAKI-1 renal
EKVX NSCLC = test system: EKVX NSCLC
HCT-116 colon = test system: HCT-116 colon
HOP-62 NSCLC = test system: HOP-62 NSCLC
PC-3 prostate = test system: PC-3 prostate
SF-539 CNS = test system: SF-539 CNS
SK-OV-3 ovarian = test system: SK-OV-3 ovarian

`CN1CCN(C(=S)N(C(=O)c2ccc(Cl)cc2)C2CCCCC2)CC1` gave a TGI (786-0 renal) greater than 100 µM, a TGI (A549 NSCLC) greater than 100 µM and a TGI (ACHN renal) greater than 100 µM. It also gave a TGI (BT-549 breast) greater than 100 µM, a TGI (CCRF-CEM leukemia) greater than 100 µM and a TGI (COLO 205 colon) greater than 100 µM. For the same compound, the TGI (DU-145 prostate) was greater than 100 µM, the TGI (HCC-2998 colon) was greater than 100 µM and the TGI (HCT-15 colon) was greater than 100 µM. The TGI (HL-60(TB) leukemia) was greater than 100 µM, the TGI (HOP-92 NSCLC) was greater than 100 µM and the TGI (HS 578T breast) was greater than 100 µM. It also gave a TGI (HT29 colon) greater than 100 µM, a TGI (IGROV1 ovarian) greater than 100 µM and a TGI (K-562 leukemia) greater than 100 µM. The TGI (KM12 colon) was greater than 100 µM, the TGI (LOX IMVI melanoma) was greater than 100 µM and the TGI (M14 melanoma) was greater than 100 µM. The TGI (MALME-3M melanoma) was greater than 100 µM, the TGI (MCF7 breast) was greater than 100 µM and the TGI (MDA-MB-231 breast) was greater than 100 µM. The TGI (MDA-MB-435) was greater than 100 µM, the TGI (MDA-N) was greater than 100 µM and the TGI (MOLT-4 leukemia) was greater than 100 µM. It also gave a TGI (NCI-H226 lung) greater than 100 µM, a TGI (NCI-H23 lung) greater than 100 µM and a TGI (NCI-H460 lung) greater than 100 µM. For the same compound, the TGI (NCI-H522 lung) was greater than 100 µM, the TGI (OVCAR-3 ovarian) was greater than 100 µM and the TGI (OVCAR-4 ovarian) was greater than 100 µM. The TGI (OVCAR-5 ovarian) was greater than 100 µM, the TGI (OVCAR-8 ovarian) was greater than 100 µM and the TGI (RPMI-8226 leukemia) was greater than 100 µM. It also gave a TGI (RXF 393 renal) greater than 100 µM, a TGI (SF-268 CNS) greater than 100 µM and a TGI (SF-295 CNS) greater than 100 µM. It also gave a TGI (SK-MEL-2 melanoma) greater than 100 µM, a TGI (SK-MEL-28 melanoma) greater than 100 µM and a TGI (SK-MEL-5 melanoma) greater than 100 µM. It also gave a TGI (SN12C renal) greater than 100 µM, a TGI (SNB-19 CNS) greater than 100 µM and a TGI (SNB-75 CNS) of 85.2 µM. The TGI (SR leukemia) was greater than 100 µM, the TGI (SW-620 colon) was greater than 100 µM and the TGI (T-47D breast) was greater than 100 µM. The TGI (TK-10 renal) was greater than 100 µM, the TGI (U251 CNS) was greater than 100 µM and the TGI (UACC-257 melanoma) was greater than 100 µM. For the same compound, the TGI (UACC-62 melanoma) was greater than 100 µM and the TGI (UO-31 renal) was greater than 100 µM.

`COC(=O)Cc1c(-c2c(CC(=O)OC)c3ccccc3n2C2OC(COC3OC(COC(C)=O)C(OC(C)=O)C(OC(C)=O)C3OC(C)=O)C(O)C(O)C2O)[nH]c2ccccc12` (stereo not drawn) was tested, and the TGI (786-0 renal) was greater than 100 µM, the TGI (A498 renal) was greater than 100 µM and the TGI (A549 NSCLC) was greater than 100 µM. For the same compound, the TGI (ACHN renal) was greater than 100 µM, the TGI (BT-549 breast) was greater than 100 µM and the TGI (CAKI-1 renal) was greater than 100 µM. The TGI (CCRF-CEM leukemia) was greater than 100 µM, the TGI (COLO 205 colon) was greater than 100 µM and the TGI (DU-145 prostate) was greater than 100 µM. For the same compound, the TGI (EKVX NSCLC) was greater than 100 µM, the TGI (HCT-116 colon) was greater than 100 µM and the TGI (HCT-15 colon) was greater than 100 µM. It also gave a TGI (HL-60(TB) leukemia) greater than 100 µM, a TGI (HOP-62 NSCLC) of 70.9 µM and a TGI (HOP-92 NSCLC) greater than 100 µM. It also gave a TGI (HT29 colon) greater than 100 µM, a TGI (IGROV1 ovarian) greater than 100 µM and a TGI (K-562 leukemia) greater than 100 µM. It also gave a TGI (LOX IMVI melanoma) greater than 100 µM, a TGI (M14 melanoma) greater than 100 µM and a TGI (MCF7 breast) greater than 100 µM. It also gave a TGI (MDA-MB-231 breast) greater than 100 µM, a TGI (MDA-MB-435) greater than 100 µM and a TGI (MDA-N) greater than 100 µM. For the same compound, the TGI (MOLT-4 leukemia) was greater than 100 µM, the TGI (NCI-H226 lung) was greater than 100 µM and the TGI (NCI-H23 lung) was greater than 100 µM. It also gave a TGI (NCI-H460 lung) greater than 100 µM, a TGI (OVCAR-3 ovarian) greater than 100 µM and a TGI (OVCAR-5 ovarian) greater than 100 µM. For the same compound, the TGI (PC-3 prostate) was greater than 100 µM, the TGI (RPMI-8226 leukemia) was greater than 100 µM and the TGI (SF-295 CNS) was greater than 100 µM. For the same compound, the TGI (SF-539 CNS) was greater than 100 µM, the TGI (SK-MEL-2 melanoma) was 64.7 µM and the TGI (SK-MEL-28 melanoma) was greater than 100 µM. It also gave a TGI (SK-MEL-5 melanoma) greater than 100 µM, a TGI (SK-OV-3 ovarian) greater than 100 µM and a TGI (SN12C renal) greater than 100 µM. For the same compound, the TGI (SNB-19 CNS) was 60 µM, the TGI (SR leukemia) was greater than 100 µM and the TGI (SW-620 colon) was greater than 100 µM. It also gave a TGI (T-47D breast) greater than 100 µM, a TGI (TK-10 renal) greater than 100 µM and a TGI (U251 CNS) greater than 100 µM. For the same compound, the TGI (UACC-257 melanoma) was greater than 100 µM, the TGI (UACC-62 melanoma) was greater than 100 µM and the TGI (UO-31 renal) was greater than 100 µM.
